Type in all cases: biochemical
For one test, the target named is T1, human CLK1 (Homo sapiens, UniProt P49759).
T1 construct: Recombinant human CLK1 (129-end); GST (N); purchased SignalChem C57-11G; host or cells: Sf9 insect cells
Put plainly: CLK1 enzyme assay (ADP-Glo). An outline of the steps: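 GST-tagged CLK1 (129-end, Sf9-expressed) at 16 nM was preincubated with compound 30 min at 25 °C in 40 mM Tris pH 7.5, 20 mM MgCl2, 0.1 mg/ml BSA, 50 μM DTT. Reaction with 2 μM substrate and 10 μM ATP ran 60 min at 25 °C. ADP-Glo luminescence gave IC50 by four-parameter fit.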
(In ADP-Glo the light output rises with the ADP produced.)

For another test, the target named is T2, human HIPK1 (Homo sapiens, UniProt Q86Z02).
T2 construct: Recombinant human HIPK1 (156-555); GST (N); purchased SignalChem H03-11G; host or cells: Sf9 insect cells
Put plainly: HIPK1 enzyme assay (ADP-Glo). An outline of the steps:
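Recombinant GST-tagged HIPK1 (156-555, Sf9), 4 nM, preincubated 30 min at 25° C with compound in Tris pH 7.5/MgCl2/BSA/DTT, then reacted 90 min with 0.05 mg/ml MBP and 5 μM ATP. ADP formed read by ADP-Glo luminescence; IC50 from four-parameter logistic fit of % inhibition versus Max/Min controls.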

The target of the next test is T3, human CIT (Homo sapiens, UniProt O14578).
T3 construct: Recombinant human CIT (1-499); GST (N); purchased SignalChem C52-11G; host or cells: Sf9 insect cells
Put plainly: CIT enzyme assay (ADP-Glo). Here is the method:
The ability of compounds to inhibit human CIT kinase activities was determined using a commercially available ADP-Glo™ Kinase Assay kit (Promega, Cat #V9102) according to the manufacturer's protocol.
Recombinant human CIT (1-499) (expressed in Sf9 insect cells with an N-terminal GST tag) was purchased from SignalChem (Cat #C52-11G). Recombinant full length human MBP (expressed in E. Coli cells with an N-terminal GST tag) was purchased from SignalChem (Cat #M42-54G). This assay, run in a 384-well plate format, is a generic method for measuring kinase activities using an ADP-Glo Kinase Assay Kit. The basic assay procedure involves two steps: (1) Enzymatic step: inhibitors are incubated with the kinase and then ATP (included in the ADP-Glo Kinase Assay Kit) and the MBP protein are added to start the enzymatic reaction; (2) Detection step: after the kinase reaction, first ADP-Glo™ Reagent is added to terminate the kinase reaction and deplete the remaining ATP. Second, the Kinase Detection Reagent is added to simultaneously convert ADP to ATP and allow the newly synthesized ATP to be measured using a luciferase/luciferin reaction. The light generated is measured using a luminometer.
Briefly, CIT (20 nM) in the enzymatic buffer solutions (40 mM Tris, pH 7.5, 20 mM MgCl2, 0.1 mg/ml BSA, 50 μM DTT) were mixed with various concentrations of inhibitors (dissolved in 100% DMSO). These solutions were incubated for 30 minutes at 25° C., and subsequently a mixture of substrate peptide and ATP was added with the final peptide and ATP concentrations at 0.05 mg/ml and 5 μM, respectively. The final reaction mixture of enzyme-substrate-ATP-compound was incubated for 90 minutes at 25° C.
Afterwards ADP-Glo™ Reagent was added and the mixture was incubated at 25° C. for 60 minutes. Then Kinase Detection Reagent was added, and the final mixture was incubated at 25° C. for 60 minutes. The luminescence signal of the final solution was measured on an Envision instrument (PerkinElmer). The percent (%) inhibition at each concentration of a compound is calculated relative to the luminescence signal in the Max and Min control wells contained within each assay plate. […] The concentrations and percent inhibition values for a test compound are plotted and the concentration of the compound required to achieve 50% inhibition (IC50) is determined with a four-parameter logistic dose response equation.

Setting [1] is: ADP-Glo, ATP 10 μM, read-out: CLK1 IC50.
The mark [2] stands for this setting: ADP-Glo, ATP 5 μM, read-out: HIPK1 IC50.
Where [3] appears, read: ADP-Glo, ATP 5 μM, read-out: CIT IC50.

In patent US12643887B2, “Heterocyclic derivatives with cardiomyocyte proliferation activity for treatment of heart diseases” (Tongji University, priority 2019, dated 2026) one finds IC50 data, which are given here for 19 compounds.

pIC50: −log10 of the molar value. Like-named read-outs stand apart in the source and are kept apart here.

T3 sequence (O14578 1-499): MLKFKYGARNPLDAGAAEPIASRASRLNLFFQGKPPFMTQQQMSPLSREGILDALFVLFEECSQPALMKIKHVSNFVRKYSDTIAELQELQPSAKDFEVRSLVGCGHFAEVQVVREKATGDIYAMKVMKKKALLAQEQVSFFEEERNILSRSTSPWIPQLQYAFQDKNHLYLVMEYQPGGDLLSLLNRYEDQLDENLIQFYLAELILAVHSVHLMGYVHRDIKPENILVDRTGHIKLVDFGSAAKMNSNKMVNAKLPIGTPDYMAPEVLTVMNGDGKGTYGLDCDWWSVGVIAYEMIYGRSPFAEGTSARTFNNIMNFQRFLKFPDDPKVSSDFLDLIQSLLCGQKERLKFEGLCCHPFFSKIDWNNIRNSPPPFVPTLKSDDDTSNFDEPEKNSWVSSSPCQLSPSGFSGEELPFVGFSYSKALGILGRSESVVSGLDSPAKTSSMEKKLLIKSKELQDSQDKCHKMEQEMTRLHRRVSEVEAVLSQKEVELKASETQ
T2 sequence (Q86Z02 156-555): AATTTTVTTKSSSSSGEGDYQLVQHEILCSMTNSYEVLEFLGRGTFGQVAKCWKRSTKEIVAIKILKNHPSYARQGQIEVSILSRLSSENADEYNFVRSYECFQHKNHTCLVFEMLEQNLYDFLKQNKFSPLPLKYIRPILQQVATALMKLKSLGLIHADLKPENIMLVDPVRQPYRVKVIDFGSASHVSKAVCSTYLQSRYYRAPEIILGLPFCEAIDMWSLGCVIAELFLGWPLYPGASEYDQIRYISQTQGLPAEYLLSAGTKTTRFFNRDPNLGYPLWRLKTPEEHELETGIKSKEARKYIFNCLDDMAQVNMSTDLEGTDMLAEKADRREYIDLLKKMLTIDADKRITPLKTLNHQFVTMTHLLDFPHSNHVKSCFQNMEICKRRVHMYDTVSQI
T1 sequence (P49759 129-484 limits assumed): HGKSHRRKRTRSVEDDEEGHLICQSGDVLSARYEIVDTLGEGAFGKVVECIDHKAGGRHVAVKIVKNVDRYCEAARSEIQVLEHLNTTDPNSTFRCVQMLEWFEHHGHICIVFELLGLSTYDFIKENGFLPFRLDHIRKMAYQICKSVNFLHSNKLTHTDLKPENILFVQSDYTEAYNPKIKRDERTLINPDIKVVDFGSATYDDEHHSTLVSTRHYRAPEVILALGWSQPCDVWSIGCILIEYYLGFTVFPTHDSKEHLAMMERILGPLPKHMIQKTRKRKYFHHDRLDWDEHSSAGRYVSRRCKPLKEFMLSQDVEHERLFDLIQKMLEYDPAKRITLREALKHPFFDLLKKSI

Usually pIC50 stands for −log10 of the IC50, conventionally taken in molar units. Turning to `CN(C1=N/C(=C\c2ccc3[nH]ccc3c2)C(=O)N1)c1ccc2ncsc2c1` [Example 87, (Z)-5-((1H-indol-5-yl)methylene)-2-(benzo[d]thiazol-6-yl(methyl)amino)-3,5-dihydro-4H-imidazol-4-one], the negative logarithm of the IC50 (pIC50) at human CLK1 (setting [1]) and on human HIPK1 (setting [2]) was less than 5.00 each time.
In the case of `Cc1nc2ccc(NC3=N/C(=C\c4ccc5ncsc5c4)C(=O)N3)cc2s1` [Example 90, (Z)-5-(benzo[d]thiazol-6-ylmethylene)-2-((2-methylbenzo[d]thiazol-6-yl)amino)-3,5-dihydro-4H-imidazol-4-one], the pIC50 on human CIT (setting [3]) is less than 5.00; at human CLK1 (setting [1]), greater than 7.00; on human HIPK1 (setting [2]) it was less than 5.00.
Turning to `CN(C1=N/C(=C\c2ccc3ncccc3c2)C(=O)N1)c1ccc2ncsc2c1` [Example 85, (Z)-2-(benzo[d]thiazol-6-yl(methyl)amino)-5-(quinolin-6-ylmethylene)-3,5-dihydro-4H-imidazol-4-one], the negative logarithm of the IC50 (pIC50) at human CLK1 (setting [1]) is 6.00 to 7.00; at human HIPK1 (setting [2]), less than 5.00.
Take `CC(=O)N(C1=N/C(=C\c2ccc3c(c2)OCO3)C(=O)N1)c1ccccc1` [Example 5, (Z)—N-(4-(benzo[d][1,3]dioxol-5-ylmethylene)-5-oxo-4,5-dihydro-1H-imidazol-2-yl)-N-phenylacetamide]: the negative logarithm of the IC50 (pIC50) against human CIT was less than 5.00; at human CLK1, 6.00 to 7.00; against human HIPK1 it was 6.00 to 7.00.
Consider `O=C1NC(N(Cc2ccccc2)c2ccc3ncsc3c2)=N/C1=C\c1ccc2ncsc2c1` [Example 99, (Z)-2-(benzo[d]thiazol-6-yl(benzyl)amino)-5-(benzo[d]thiazol-6-ylmethylene)-3,5-dihydro-4H-imidazol-4-one], for which the results for the pIC50 at human CLK1 (setting [1]) and at human HIPK1 (setting [2]) were greater than 7.00 and less than 5.00, respectively.
For the compound `CCN(C1=N/C(=C\c2ccc3c(c2)OCO3)C(=O)N1)c1ccccc1` [Example 4, (Z)-5-(benzo[d][1,3]dioxol-5-ylmethylene)-2-(ethyl(phenyl)amino)-3,5-dihydro-4H-imidazol-4-one], the pIC50 at human CIT (setting [3]) was less than 5.00; on human CLK1 (setting [1]), 6.00 to 7.00; on human HIPK1 (setting [2]) it was less than 5.00.
For `O=C1NC(Nc2ccc3sccc3c2)=N/C1=C\c1ccc2ncsc2c1` [Example 101, (Z)-2-(benzo[b]thiophen-5-ylamino)-5-(benzo[d]thiazol-6-ylmethylene)-3,5-dihydro-4H-imidazol-4-one], the pIC50 on human CLK1 (setting [1]) is 6.00 to 7.00; at human HIPK1 (setting [2]), less than 5.00.
For `O=C1NC(Nc2ccc3ncsc3c2)=N/C1=C\c1ccc2nccnc2c1` [Example 94, (Z)-2-(benzo[d]thiazol-6-ylamino)-5-(quinoxalin-6-ylmethylene)-3,5-dihydro-4H-imidazol-4-one], the negative-log IC50 (pIC50) at human CLK1 (setting [1]) and on human HIPK1 (setting [2]) was less than 5.00 throughout.
For `Nc1ccc(NC2=N/C(=C\c3ccc4ncsc4c3)C(=O)N2)cc1` [Example 98, (Z)-2-((4-aminophenyl)amino)-5-(benzo[d]thiazol-6-ylmethylene)-3,5-dihydro-4H-imidazol-4-one], the pIC50 at human CIT (setting [3]) is 6.00 to 7.00; on human CLK1 (setting [1]) it was greater than 7.00; at human HIPK1 (setting [2]), 6.00 to 7.00.
Turning to `O=C1NC(Nc2ccc3ncsc3c2)=N/C1=C\c1cncs1` [Example 92, (Z)-2-(benzo[d]thiazol-6-ylamino)-5-(thiazol-5-ylmethylene)-3,5-dihydro-4H-imidazol-4-one], the negative logarithm of the IC50 (pIC50) on human CLK1 (setting [1]) is greater than 7.00; at human HIPK1 (setting [2]) it was 6.00 to 7.00.
`CC(=O)N(C1=N/C(=C\c2ccc3ncsc3c2)C(=O)N1)c1ccc2ncsc2c1` [Example 91, (Z)—N-(benzo[d]thiazol-6-yl)-N-(4-(benzo[d]thiazol-6-ylmethylene)-5-oxo-4,5-dihydro-1H-imidazol-2-yl)acetamide]: the pIC50 at human CLK1 (setting [1]) is greater than 7.00; on human HIPK1 (setting [2]), 6.00 to 7.00.
Turning to `COCCN(C1=N/C(=C\c2ccc3ncsc3c2)C(=O)N1)c1ccc2ncsc2c1` [Example 89, (Z)-2-(benzo[d]thiazol-6-yl(2-methoxyethyl)amino)-5-(benzo[d]thiazol-6-ylmethylene)-3,5-dihydro-4H-imidazol-4-one], the results for the pIC50 on human CLK1 (setting [1]) and on human HIPK1 (setting [2]) were greater than 7.00 and 5.00 to 6.00, respectively.
The corresponding values for `O=C1NC(Nc2ccc3ncsc3c2)=N/C1=C\c1ccc2cn[nH]c2c1` [Example 95, (Z)-5-((1H-indazol-6-yl)methylene)-2-(benzo[d]thiazol-6-ylamino)-3,5-dihydro-4H-imidazol-4-one] are less than 5.00 and less than 5.00.
Turning to `Cn1cnc2ccc(NC3=N/C(=C\c4ccc5ncsc5c4)C(=O)N3)cc21` [Example 93, (Z)-5-(benzo[d]thiazol-6-ylmethylene)-2-((1-methyl-1H-benzo[d]imidazol-6-yl)amino)-3,5-dihydro-4H-imidazol-4-one], the values for the negative logarithm of the IC50 (pIC50) on human CLK1 (setting [1]) and on human HIPK1 (setting [2]) were greater than 7.00 and 6.00 to 7.00, respectively.
For the compound `CC(C)Nc1nc2ccc(NC3=N/C(=C\c4ccc5ncsc5c4)C(=O)N3)cc2s1` [Example 100, (Z)-5-(benzo[d]thiazol-6-ylmethylene)-2-((2-(isopropylamino)benzo[d]thiazol-6-yl)amino)-3,5-dihydro-4H-imidazol-4-one], the negative logarithm of the IC50 (pIC50) on human CLK1 (setting [1]) was 5.00 to 6.00; on human HIPK1 (setting [2]), less than 5.00.
The corresponding values for `O=C1NC(Nc2ccc3nc[nH]c3c2)=N/C1=C\c1ccc2ncsc2c1` [Example 97, (Z)-2-((1H-benzo[d]imidazol-6-yl)amino)-5-(benzo[d]thiazol-6-ylmethylene)-3,5-dihydro-4H-imidazol-4-one] are 6.00 to 7.00 and 6.00 to 7.00.
With `O=C1NC(=S)N/C1=C\c1ccc2sccc2c1` [Example 96, (Z)-5-(benzo[b]thiophen-5-ylmethylene)-2-thioxoimidazolidin-4-one], the pIC50 on human CLK1 (setting [1]) and at human HIPK1 (setting [2]) was less than 5.00 throughout.
Turning to `CN1C(=O)/C(=C/c2ccc3ncsc3c2)N=C1Nc1ccc2ncsc2c1` [Example 88, (Z)-2-(benzo[d]thiazol-6-ylamino)-5-(benzo[d]thiazol-6-ylmethylene)-3-methyl-3,5-dihydro-4H-imidazol-4-one], the pIC50 on human CLK1 (setting [1]) is greater than 7.00; at human HIPK1 (setting [2]), less than 5.00.
The corresponding values for `CN(C1=N/C(=C\c2ccc3ncsc3c2)C(=O)N1)c1ccc2c(c1)ncn2C` [Example 86, (Z)-5-(benzo[d]thiazol-6-ylmethylene)-2-(methyl(1-methyl-1H-benzo[d]imidazol-5-yl)amino)-3,5-dihydro-4H-imidazol-4-one] are 5.00 to 6.00 and 5.00 to 6.00.
